Results: publication PMC6566874, “Comparative study of the antidiabetic potential of Paederia foetida twig extracts and compounds from two different locations in Malaysia” (Pharmaceutical Biology, 2019)

Biological target: T1, α-amylase
T1 construct: PDB 4W93 was used for docking only
Assay: iodine-starch absorbance assay, […] nm
Type: biochemical
Details: soluble starch substrate, 0.1 M sodium phosphate buffer, 37 °C, 15 min preincubation; read-out: α-Amylase inhibition activity IC50 (μg/mL) / Pahang (PFP)

COc1cc2ccc(=O)oc2cc1O [compound 1, scopoletin]
IC50: 52 ± 130 nM
